Read-outs that look alike come from different tables or passages of the source.
Tests used:
[1] = target: GSK 3α (Homo sapiens (Human), UniProt P49840); assay: GSK 3α enzyme inhibition (Method 2), Z-LYTE FRET; type: biochemical; details: read-out: IC50 Values for Enzyme Inhibition GSK3α
Method in brief: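 GSK3-α (500 ng/mL stock) was preincubated with compound at RT for 2 hr (Method 1; 4-0.004 μg/mL stocks) or 105 min (Method 2; 10-0.01 μg/mL stocks). The Z-LYTE FRET peptide (8 μM stock) and ATP (40 μM stock) were then reacted for 1 hr, followed by 1 hr protease development. Phosphorylation was read as the coumarin/fluorescein emission ratio.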

[2] = target: p38 MAPKα (Homo sapiens (Human), UniProt Q16539); assay: KINOMEscan dissociation constant, p38 MAPKα; type: binding
From the text: (§1) These assays may be conducted by DiscoverX (formerly Ambit; San Diego, Calif.).

[3] = target: human ether a go-go (hERG) channel (Homo sapiens (Human), UniProt Q12809); assay: hERG inhibition, IonWorks patch clamp electrophysiology; type: cell-based; details: IonWorks patch clamp
Method: (§2) Compounds of the invention were tested for inhibition of the human ether a go-go (hERG) channel using IonWorks™ patch clamp electrophysiology at Essen Bioscience (Welwyn Garden City, England).

[4] = target: hERG (Homo sapiens (Human), UniProt Q12809); assay: as above; type: cell-based; details: human, hERG, read-out: % Inhibition at Top Concentration
Method: as §2

[5] = target: Lck (Homo sapiens (Human), UniProt P06239); assay: KINOMEscan dissociation constant, Lck; type: binding
From the text: as §1

[6] = target: Syk (Homo sapiens (Human), UniProt P43405); assay: KINOMEscan dissociation constant, Syk; type: binding
From the text: as §1

[7] = system: Salmonella typhimurium, strains TA1535, TA1537, TA98 and TA100; assay: Bacterial reverse mutation screen, Salmonella typhimurium
[8] = target: B-Raf (V600E) (Homo sapiens (Human), UniProt P15056, V600E); assay: KINOMEscan binding of B-Raf (V600E) to its standard ligand
From the text: as §1

[9] = target: B-Raf (Homo sapiens (Human), UniProt P15056); assay: KINOMEscan binding of B-Raf to its standard ligand
From the text: as §1

[10] = Pharmacokinetics and total colon distribution after single oral administration; type: in vivo, male C57BL/6 mice; details: male, C57BL/6, mouse, mice, oral 5 mg/kg
Method: Studies were conducted by Sai Life Sciences (Hinjewadi, Pune, India) to investigate the systemic pharmacokinetics and total colon tissue distribution of compounds of the invention. In particular, pharmacokinetic studies were carried out in male C57BL/6 mice following a single oral administration of the compound.

[11] = system: Escherichia coli, WP2 uvrA; assay: Bacterial reverse mutation screen, Escherichia coli
[12] = system: non-mutant kinases; assay: KinomeScan Selectivity Scores; type: binding
From the text: as §1

[13] = system: Jurkat cells; assay: Cell cytotoxicity assay (r); type: cell-based, human; details: 24 hours, 5 μg/mL
Method in brief: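 Jurkat cells (1×10^5/well, RPMI + 10% FBS) exposed to compound at 20, 5 or 1 μg/mL final (1.0% DMSO control) for 24 h at 37° C., 5% CO2. Then stained with 7.5 μg/mL propidium iodide for 15 min. % viability = PI-negative cells by flow cytometry, normalized to DMSO.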

[14] = plasma, measured cpd = dosed cpd (1 as Na salt, 44 as NH4+ salt), read-out: Mean plasma concentration
[15] = total colon tissue, measured cpd = dosed cpd (1, 19, 47 as Na salt, 44 as NH4+ salt), read-out: total colon level
[16] = total colon, measured cpd = dosed cpd (1, 19, 47 as Na salt, 44 as NH4+ salt), read-out: total colon level
[17] = blood, measured cpd = dosed cpd (19, 47 as Na salt), read-out: Mean blood concentration

human ether a go-go (hERG) channel, sequence (Q12809 whole entry): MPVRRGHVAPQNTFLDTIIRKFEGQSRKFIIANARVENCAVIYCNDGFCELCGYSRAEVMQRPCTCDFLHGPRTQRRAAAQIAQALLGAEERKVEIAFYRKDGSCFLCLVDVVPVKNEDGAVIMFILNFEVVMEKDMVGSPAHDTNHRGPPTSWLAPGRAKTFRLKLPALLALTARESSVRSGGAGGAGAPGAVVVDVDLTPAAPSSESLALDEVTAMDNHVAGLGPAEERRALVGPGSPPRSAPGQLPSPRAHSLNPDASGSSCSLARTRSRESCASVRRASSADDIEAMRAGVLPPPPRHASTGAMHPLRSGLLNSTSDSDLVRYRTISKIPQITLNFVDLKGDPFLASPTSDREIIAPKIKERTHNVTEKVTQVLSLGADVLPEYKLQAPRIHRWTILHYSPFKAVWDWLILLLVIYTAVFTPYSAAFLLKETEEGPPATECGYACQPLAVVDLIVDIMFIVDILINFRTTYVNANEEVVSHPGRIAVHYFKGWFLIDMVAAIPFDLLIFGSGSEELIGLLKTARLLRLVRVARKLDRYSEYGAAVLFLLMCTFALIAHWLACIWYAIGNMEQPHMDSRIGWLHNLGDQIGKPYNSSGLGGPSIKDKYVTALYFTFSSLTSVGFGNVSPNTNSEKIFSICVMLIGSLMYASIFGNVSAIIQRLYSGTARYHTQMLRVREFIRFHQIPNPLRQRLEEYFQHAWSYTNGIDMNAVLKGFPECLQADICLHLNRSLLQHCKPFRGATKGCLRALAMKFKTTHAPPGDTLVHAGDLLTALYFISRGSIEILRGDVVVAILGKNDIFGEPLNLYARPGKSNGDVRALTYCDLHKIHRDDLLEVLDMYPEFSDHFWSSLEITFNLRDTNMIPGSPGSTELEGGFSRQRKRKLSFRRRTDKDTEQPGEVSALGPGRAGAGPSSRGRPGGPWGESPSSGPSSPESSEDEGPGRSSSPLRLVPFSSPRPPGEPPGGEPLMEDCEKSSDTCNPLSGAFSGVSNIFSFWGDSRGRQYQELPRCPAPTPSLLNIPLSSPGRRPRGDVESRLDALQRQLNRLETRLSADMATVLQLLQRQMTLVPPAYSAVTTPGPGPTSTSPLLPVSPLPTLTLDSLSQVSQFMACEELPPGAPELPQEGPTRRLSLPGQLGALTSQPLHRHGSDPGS
hERG, sequence (Q12809 whole entry): as above
B-Raf, sequence (P15056 whole entry): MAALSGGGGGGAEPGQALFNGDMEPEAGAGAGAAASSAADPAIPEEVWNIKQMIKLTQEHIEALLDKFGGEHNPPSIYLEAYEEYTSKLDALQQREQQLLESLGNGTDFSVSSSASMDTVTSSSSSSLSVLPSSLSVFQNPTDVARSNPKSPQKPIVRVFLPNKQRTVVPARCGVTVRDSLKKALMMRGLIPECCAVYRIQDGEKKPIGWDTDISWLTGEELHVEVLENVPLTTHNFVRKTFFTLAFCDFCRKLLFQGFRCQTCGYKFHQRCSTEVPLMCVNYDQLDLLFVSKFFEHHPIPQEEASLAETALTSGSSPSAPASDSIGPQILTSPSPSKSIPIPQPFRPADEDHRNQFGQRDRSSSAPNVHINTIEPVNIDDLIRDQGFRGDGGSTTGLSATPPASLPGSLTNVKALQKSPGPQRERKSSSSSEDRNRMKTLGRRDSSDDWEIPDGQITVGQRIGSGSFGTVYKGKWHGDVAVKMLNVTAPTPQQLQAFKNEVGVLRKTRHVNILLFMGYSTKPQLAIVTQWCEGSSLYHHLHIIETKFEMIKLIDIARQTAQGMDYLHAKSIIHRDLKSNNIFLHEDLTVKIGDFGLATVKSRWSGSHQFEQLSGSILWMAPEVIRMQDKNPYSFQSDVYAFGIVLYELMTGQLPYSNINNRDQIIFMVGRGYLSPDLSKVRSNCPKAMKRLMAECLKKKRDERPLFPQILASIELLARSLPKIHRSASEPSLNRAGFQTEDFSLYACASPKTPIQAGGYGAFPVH
B-Raf (V600E), sequence (P15056 whole entry V600E): as the sequence (P15056 whole entry) above, with V600E counted along it
p38 MAPKα, sequence (Q16539 whole entry): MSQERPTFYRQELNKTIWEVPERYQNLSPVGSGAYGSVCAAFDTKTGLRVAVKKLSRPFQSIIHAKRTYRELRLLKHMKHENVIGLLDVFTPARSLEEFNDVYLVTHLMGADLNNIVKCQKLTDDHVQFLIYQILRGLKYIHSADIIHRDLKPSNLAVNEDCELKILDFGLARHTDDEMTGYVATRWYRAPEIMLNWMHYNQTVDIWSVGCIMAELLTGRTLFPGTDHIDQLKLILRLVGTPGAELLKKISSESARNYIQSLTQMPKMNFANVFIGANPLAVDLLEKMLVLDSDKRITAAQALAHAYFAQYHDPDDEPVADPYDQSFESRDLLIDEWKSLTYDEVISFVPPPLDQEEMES
Lck, sequence (P06239 whole entry): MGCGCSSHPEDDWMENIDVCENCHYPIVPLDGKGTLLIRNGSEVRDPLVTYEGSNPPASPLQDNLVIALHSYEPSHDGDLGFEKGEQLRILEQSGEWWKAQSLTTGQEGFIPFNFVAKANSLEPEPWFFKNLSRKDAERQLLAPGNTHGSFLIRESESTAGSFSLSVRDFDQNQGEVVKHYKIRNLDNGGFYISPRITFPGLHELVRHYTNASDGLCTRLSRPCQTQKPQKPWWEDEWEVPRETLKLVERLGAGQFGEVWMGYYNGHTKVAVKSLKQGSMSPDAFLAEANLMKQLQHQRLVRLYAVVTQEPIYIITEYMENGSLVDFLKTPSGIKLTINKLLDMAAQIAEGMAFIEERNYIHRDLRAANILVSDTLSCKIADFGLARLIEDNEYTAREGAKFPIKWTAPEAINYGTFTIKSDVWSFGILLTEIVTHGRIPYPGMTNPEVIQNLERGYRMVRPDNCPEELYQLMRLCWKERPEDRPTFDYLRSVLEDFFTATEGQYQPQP
GSK 3α, sequence (P49840 whole entry): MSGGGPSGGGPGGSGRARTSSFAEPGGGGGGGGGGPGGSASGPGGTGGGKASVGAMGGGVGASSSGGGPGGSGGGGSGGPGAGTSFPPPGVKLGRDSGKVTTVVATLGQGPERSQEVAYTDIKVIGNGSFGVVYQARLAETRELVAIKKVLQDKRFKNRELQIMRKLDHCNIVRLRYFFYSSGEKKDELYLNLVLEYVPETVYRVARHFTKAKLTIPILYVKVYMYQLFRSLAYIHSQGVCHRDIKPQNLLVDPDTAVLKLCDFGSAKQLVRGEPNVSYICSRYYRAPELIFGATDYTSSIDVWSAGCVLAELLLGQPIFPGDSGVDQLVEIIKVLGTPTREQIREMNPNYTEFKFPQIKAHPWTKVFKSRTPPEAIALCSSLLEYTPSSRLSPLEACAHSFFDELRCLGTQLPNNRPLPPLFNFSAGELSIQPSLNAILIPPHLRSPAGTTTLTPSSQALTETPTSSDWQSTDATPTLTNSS

With `COc1cc(Nc2cc(Oc3ccc(NC(=O)Nc4cc(C(C)(C)C)cc(NS(C)(=O)=O)c4OC)c4ccccc34)ccn2)ccc1C(=O)NCCN1CCOCC1` [Example 2, 4-((4-((4-(3-(5-(tert-Butyl)-2-methoxy-3-(methylsulfonamido)phenyl)ureido)naphthalen-1-yl)oxy)pyridin-2-yl)amino)-2-methoxy-N-(2-morpholinoethyl)benzamide] the IC50 [1] was 2300 nM, the Kd [2] was 23 nM and the IC50 [3] was over 3300 nM. It also gave an inhibition at 3 µM ([4]; 3 μM) of -2%, a Kd [5] of 5.8 nM and a Kd [6] of 18 nM.

With `COc1cc(Nc2cc(Oc3ccc(NC(=O)Nc4cc(C(C)(C)C)cc(NS(C)(=O)=O)c4OC)c4ccccc34)ccn2)ccc1P(C)(=O)O` [Example 44, (4-((4-((4-(3-(5-(tert-Butyl)-2-methoxy-3-(methylsulfonamido)phenyl)ureido)naphthalen-1-yl)oxy)pyridin-2-yl)amino)-2-methoxyphenyl)(methyl)phosphinic acid] the Kd [2] was 1.9 nM, the “dose with reduction in the mean colony count (toxicity to the bacteria)” value (“dose with reduction” for short) ([7]; TA98, presence of S-9 mix) was 5000 μg/plate and the “dose with reduction” value ([7]; TA100, presence of S-9 mix) was 5000 μg/plate. The “mutagenic effects (revertant numbers)” value ([7]; TA1535, TA1537, TA98, TA100, presence or absence of S-9 mix, plate incorporation) was “absence of any mutagenic effects”, the “dose with reduction” value ([7]; TA1535, presence of S-9 mix) was 5000 μg/plate and the “dose with reduction” value ([7]; TA1537, presence of S-9 mix) was 5000 μg/plate. For the same compound, the “limit of solubility in the mutation test” value ([7]; all strains, presence and absence of S-9 mix, plate incorporation) was 5000 μg/plate, the IC50 [3] was over 11000 nM and the inhibition at 11 µM [4] was 18%. For the same compound, the Kd [5] was 5.3 nM, the “effect on the binding of B-Raf (V600E) to its standard ligand” value [8] was “did not have any significant effect” and the “effect on the binding of B-Raf to its standard ligand” value [9] was “did not have any significant effect”. It also gave a concentration at 0.5 h [10, 14] of 0 ng/mL, a concentration at 1 h [10, 14] of 0 ng/mL and a concentration at 2 h [10, 14] of 0 ng/mL. It also gave a concentration at 4 h [10, 14] of 0 ng/mL, a concentration at 6 h [10, 14] of 0 ng/mL and a concentration at 8 h [10, 14] of 0 ng/mL. For the same compound, the concentration at 12 h [10, 14] was 0 ng/mL, the concentration at 24 h [10, 14] was 0 ng/mL and the concentration at 2 h [10, 15] was 2330 ng/g. For the same compound, the concentration at 4 h [10, 15] was 1750 ng/g, the concentration at 6 h [10, 15] was 450 ng/g and the concentration at 8 h [10, 15] was 915 ng/g. For the same compound, the concentration at 12 h [10, 15] was 180 ng/g, the concentration at 0.5 h [10, 16] was 0 ng/g and the concentration at 1 h [10, 16] was 0 ng/g. For the same compound, the concentration at 24 h [10, 16] was 0 ng/g, the Kd [6] was 6.6 nM and the “dose with reduction” value ([11]; absence of S-9 mix) was 5000 μg/plate. The “mutagenic effects (revertant numbers)” value ([11]; presence or absence of S-9 mix, plate incorporation) was “absence of any mutagenic effects”.

In the case of `COc1cc(Nc2cc(Oc3ccc(NC(=O)Nc4cc(C(C)(C)C)cc(NS(C)(=O)=O)c4OC)c4ccccc34)ccn2)cc(OC)c1C(=O)NCCOCCOCCOP(=O)(O)O` [Example 47, 2-(2-(2-(4-((4-((4-(3-(5-(tert-butyl)-2-methoxy-3-(methylsulfonamido)phenyl)ureido)-naphthalen-1-yl)oxy)pyridin-2-yl)amino)-2,6-dimethoxybenzamido)ethoxy)ethoxy)ethyl dihydrogen phosphate], the IC50 [3] is reported as over 11000 nM, the inhibition at 11 µM [4] is reported as 19% and the “KinomeScan Selectivity Score S(10)” value ([12]; 50 nM, (non-mutant kinases with % Ctrl <10)/(non-mutant kinases tested)) is reported as 0.042. For the same compound, the “KinomeScan Selectivity Score S(1)” value ([12]; 500 nM, (non-mutant kinases with % Ctrl <1)/(non-mutant kinases tested)) was 0.074, the “% Viability at 5 μg/mL” value [13] was 96.0% and the “effect on the binding of B-Raf (V600E) to its standard ligand” value [8] was “did not have any significant effect”. For the same compound, the “effect on the binding of B-Raf to its standard ligand” value [9] was “did not have any significant effect”, the concentration at 0.5 h [10, 17] was 0 ng/mL and the concentration at 1 h [10, 17] was 0 ng/mL. The concentration at 2 h [10, 17] was 0 ng/mL, the concentration at 4 h [10, 17] was 0 ng/mL and the concentration at 6 h [10, 17] was 0 ng/mL. It also gave a concentration at 8 h [10, 17] of 0 ng/mL, a concentration at 12 h [10, 17] of 0 ng/mL and a concentration at 24 h [10, 17] of 0 ng/mL. The concentration at 2 h [10, 15] was 0 ng/g, the concentration at 4 h [10, 15] was 0 ng/g and the concentration at 6 h [10, 15] was 0 ng/g. It also gave a concentration at 8 h [10, 15] of 0 ng/g, a concentration at 12 h [10, 15] of 0 ng/g and a concentration at 0.5 h [10, 16] of 0 ng/g. The concentration at 1 h [10, 16] was 0 ng/g and the concentration at 24 h [10, 16] was 0 ng/g.
